Data published in patent publication US20150011423A1, “MEANS AND METHODS FOR ASSESSING KIDNEY TOXICITY” (BASF SE, priority 2011, published 2015).

Test system: rats
Test: 28-day repeated dose study in rats with mass spectrometry-based plasma metabolite profiling (GC-MS, LC-MS, SPE-LC-MS); treatment ratios versus control
Conditions: plasma; for Choline plasmalogen No 02 (putative), treatment ratio versus control / Lyso PE (C22:0) (putative), treatment ratio versus control / Lysophosphatidylcholine (C17:0), treatment ratio versus control / TAG (C42:9) (DAG-Fragment) (putative), treatment ratio versus control: male rats, Table 11b alpha 2 u globulin-nephropathy
[1] = day 7, high doses except for 1,1,2,2-tetrachloroethane
[2] = day 14, high doses except for 1,1,2,2-tetrachloroethane
[3] = day 28, high doses except for 1,1,2,2-tetrachloroethane

Description: A group of each 5 male and female rats was dosed once daily with the indicated compounds (see Table 9, below for compounds, applied doses and administration details) over 28 days.
Each dose group in the studies consisted of five rats per sex. Additional groups of each 5 male and female animals served as controls. Before starting the treatment period, animals, which were 62-64 days old when supplied, were acclimatized to the housing and environmental conditions for 7 days. All animals of the animal population were kept under the same constant temperature (20-24±3° C.) and the same constant humidity (30-70%). The animals of the animal population were fed ad libitum. The food to be used was essentially free of chemical or microbial contaminants. Drinking water was also offered ad libitum. […] The illumination period was 12 hours light followed by 12 hours darkness (12 hours light, from 6:00 to 18:00, and 12 hours darkness, from 18:00 to 6:00). […] The test substances (compounds in Table 9 were dosed and administered as described in the table above.
In the morning of day 7, 14, and 28, blood was taken from the retroorbital venous plexus from fasted anaesthetized animals. From each animal, 1 ml of blood was collected with EDTA as anticoagulant. The samples were centrifuged for generation of plasma. All plasma samples were covered with a N2 atmosphere and then stored at −80° C. until analysis.
For mass spectrometry-based metabolite profiling analyses plasma samples were extracted and a polar and a non-polar (lipid) fraction was obtained. For GC-MS analysis, the non-polar fraction was treated with methanol under acidic conditions to yield the fatty acid methyl esters. Both fractions were further derivatised with O-methyl-hydroxyamine hydrochloride and pyridine to convert Oxo-groups to O-methyloximes and subsequently with a silylating agent before analysis. In LC-MS analysis, both fractions were reconstituted in appropriate solvent mixtures. HPLC was performed by gradient elution on reversed phase separation columns.
Steroids and their metabolites were measured by online SPE-LC-MS (Solid phase extraction-LC-MS).
Following comprehensive analytical validation steps, the data for each analyte were normalized against data from pool samples. These samples were run in parallel through the whole process to account for process variability. The significance of treatment group values specific for sex, treatment duration and metabolite was determined by comparing means of the treated groups to the means of the respective untreated control groups using WELCH-test and quantified with treatment ratios versus control and p-values.

CC(C)CC(C)(C)C [2,2,4-Trimethylpentane, 2,2,4-trimethylpentane]
3-Hydroxyindole (ratio treated vs control) (m7: male rats, day 7): 1.92
4-Hydroxysphinganine (t18:0, Phytosphingosine), total (ratio treated vs control) (m7: male rats, day 7): 1.46
Glucuronic acid (ratio treated vs control) (m7: male rats, day 7): 3.88
Glutamate (ratio treated vs control) (m7: male rats, day 7): 1.57
Nervonic acid (C24:cis[15]1) (ratio treated vs control) (m7: male rats, day 7): 1.60
Oleic acid (C18:cis[9]1) (ratio treated vs control) (m7: male rats, day 7): 2.10
Ornithine (ratio treated vs control) (m7: male rats, day 7): 1.12
Pantothenic acid (ratio treated vs control) (m7: male rats, day 7): 2.59
Phosphatidylcholine (C18:0, C18:1) (ratio treated vs control) (m7: male rats, day 7): 1.35
Pseudouridine (ratio treated vs control) (m7: male rats, day 7): 1.23
Sphingomyelin (d18:1, C16:0) (ratio treated vs control) (m7: male rats, day 7): 1.62
Sphingomyelin (d18:2, C18:0) (ratio treated vs control) (m7: male rats, day 7): 1.35
Xylitol (ratio treated vs control) (m7: male rats, day 7): 1.65
dihomo-gamma-Linolenic acid (C20:cis[8,11,14]3) (ratio treated vs control) (m7: male rats, day 7): 2.42
3-Hydroxyindole (ratio treated vs control) (m14: male rats, day 14): 2.88
4-Hydroxysphinganine (t18:0, Phytosphingosine), total (ratio treated vs control) (m14: male rats, day 14): 1.34
Glucuronic acid (ratio treated vs control) (m14: male rats, day 14): 3.87
Glutamate (ratio treated vs control) (m14: male rats, day 14): 1.44
Nervonic acid (C24:cis[15]1) (ratio treated vs control) (m14: male rats, day 14): 1.38
Oleic acid (C18:cis[9]1) (ratio treated vs control) (m14: male rats, day 14): 2.37
Ornithine (ratio treated vs control) (m14: male rats, day 14): 1.23
Pantothenic acid (ratio treated vs control) (m14: male rats, day 14): 3.07
Phosphatidylcholine (C18:0, C18:1) (ratio treated vs control) (m14: male rats, day 14): 1.34
Pseudouridine (ratio treated vs control) (m14: male rats, day 14): 1.31
Sphingomyelin (d18:1, C16:0) (ratio treated vs control) (m14: male rats, day 14): 1.59
Sphingomyelin (d18:2, C18:0) (ratio treated vs control) (m14: male rats, day 14): 1.28
Xylitol (ratio treated vs control) (m14: male rats, day 14): 1.33
dihomo-gamma-Linolenic acid (C20:cis[8,11,14]3) (ratio treated vs control) (m14: male rats, day 14): 2.06
3-Hydroxyindole (ratio treated vs control) (m28: male rats, day 28): 2.30
4-Hydroxysphinganine (t18:0, Phytosphingosine), total (ratio treated vs control) (m28: male rats, day 28): 1.26
Glucuronic acid (ratio treated vs control) (m28: male rats, day 28): 3.46
Glutamate (ratio treated vs control) (m28: male rats, day 28): 1.74
Nervonic acid (C24:cis[15]1) (ratio treated vs control) (m28: male rats, day 28): 1.22
Oleic acid (C18:cis[9]1) (ratio treated vs control) (m28: male rats, day 28): 2.97
Ornithine (ratio treated vs control) (m28: male rats, day 28): 1.23
Pantothenic acid (ratio treated vs control) (m28: male rats, day 28): 3.03
Phosphatidylcholine (C18:0, C18:1) (ratio treated vs control) (m28: male rats, day 28): 1.35
Pseudouridine (ratio treated vs control) (m28: male rats, day 28): 1.28
Sphingomyelin (d18:1, C16:0) (ratio treated vs control) (m28: male rats, day 28): 1.54
Sphingomyelin (d18:2, C18:0) (ratio treated vs control) (m28: male rats, day 28): 1.23
Xylitol (ratio treated vs control) (m28: male rats, day 28): 1.68
dihomo-gamma-Linolenic acid (C20:cis[8,11,14]3) (ratio treated vs control) (m28: male rats, day 28): 2.77
Choline plasmalogen No 02 (putative), treatment ratio versus control [1]: 0.72
Lyso PE (C22:0) (putative), treatment ratio versus control [1]: 0.54
Lysophosphatidylcholine (C17:0), treatment ratio versus control [1]: 0.72
TAG (C42:9) (DAG-Fragment) (putative), treatment ratio versus control [1]: 0.67
Choline plasmalogen No 02 (putative), treatment ratio versus control [2]: 0.73
Lyso PE (C22:0) (putative), treatment ratio versus control [2]: 0.49
Lysophosphatidylcholine (C17:0), treatment ratio versus control [2]: 0.73
TAG (C42:9) (DAG-Fragment) (putative), treatment ratio versus control [2]: 0.64
Choline plasmalogen No 02 (putative), treatment ratio versus control [3]: 0.81
Lyso PE (C22:0) (putative), treatment ratio versus control [3]: 0.45
Lysophosphatidylcholine (C17:0), treatment ratio versus control [3]: 0.80
TAG (C42:9) (DAG-Fragment) (putative), treatment ratio versus control [3]: 0.76

ClC(Cl)C(Cl)Cl [1,1,2,2-Tetrachloroethane]
3-Hydroxyindole (ratio treated vs control) (m7: male rats, day 7): 1.39
4-Hydroxysphinganine (t18:0, Phytosphingosine), total (ratio treated vs control) (m7: male rats, day 7): 2.03
Glucuronic acid (ratio treated vs control) (m7: male rats, day 7): 3.97
Glutamate (ratio treated vs control) (m7: male rats, day 7): 2.31
Nervonic acid (C24:cis[15]1) (ratio treated vs control) (m7: male rats, day 7): 1.09
Oleic acid (C18:cis[9]1) (ratio treated vs control) (m7: male rats, day 7): 1.11
Ornithine (ratio treated vs control) (m7: male rats, day 7): 2.10
Pantothenic acid (ratio treated vs control) (m7: male rats, day 7): 4.46
Phosphatidylcholine (C18:0, C18:1) (ratio treated vs control) (m7: male rats, day 7): 1.48
Pseudouridine (ratio treated vs control) (m7: male rats, day 7): 1.17
Sphingomyelin (d18:1, C16:0) (ratio treated vs control) (m7: male rats, day 7): 1.65
Sphingomyelin (d18:2, C18:0) (ratio treated vs control) (m7: male rats, day 7): 1.22
Xylitol (ratio treated vs control) (m7: male rats, day 7): 12.21
dihomo-gamma-Linolenic acid (C20:cis[8,11,14]3) (ratio treated vs control) (m7: male rats, day 7): 2.56
3-Hydroxyindole (ratio treated vs control) (m14: male rats, day 14): 2.05
4-Hydroxysphinganine (t18:0, Phytosphingosine), total (ratio treated vs control) (m14: male rats, day 14): 2.04
Glucuronic acid (ratio treated vs control) (m14: male rats, day 14): 1.20
Glutamate (ratio treated vs control) (m14: male rats, day 14): 1.80
Nervonic acid (C24:cis[15]1) (ratio treated vs control) (m14: male rats, day 14): 0.96
Oleic acid (C18:cis[9]1) (ratio treated vs control) (m14: male rats, day 14): 1.18
Ornithine (ratio treated vs control) (m14: male rats, day 14): 2.38
Pantothenic acid (ratio treated vs control) (m14: male rats, day 14): 4.32
Phosphatidylcholine (C18:0, C18:1) (ratio treated vs control) (m14: male rats, day 14): 1.21
Pseudouridine (ratio treated vs control) (m14: male rats, day 14): 1.51
Sphingomyelin (d18:1, C16:0) (ratio treated vs control) (m14: male rats, day 14): 1.34
Sphingomyelin (d18:2, C18:0) (ratio treated vs control) (m14: male rats, day 14): 0.93
Xylitol (ratio treated vs control) (m14: male rats, day 14): 10.32
dihomo-gamma-Linolenic acid (C20:cis[8,11,14]3) (ratio treated vs control) (m14: male rats, day 14): 3.40
3-Hydroxyindole (ratio treated vs control) (m28: male rats, day 28): 2.05
4-Hydroxysphinganine (t18:0, Phytosphingosine), total (ratio treated vs control) (m28: male rats, day 28): 2.04
Glucuronic acid (ratio treated vs control) (m28: male rats, day 28): 1.20
Glutamate (ratio treated vs control) (m28: male rats, day 28): 1.80
Nervonic acid (C24:cis[15]1) (ratio treated vs control) (m28: male rats, day 28): 0.96
Oleic acid (C18:cis[9]1) (ratio treated vs control) (m28: male rats, day 28): 1.18
Ornithine (ratio treated vs control) (m28: male rats, day 28): 2.38
Pantothenic acid (ratio treated vs control) (m28: male rats, day 28): 4.32
Phosphatidylcholine (C18:0, C18:1) (ratio treated vs control) (m28: male rats, day 28): 1.21
Pseudouridine (ratio treated vs control) (m28: male rats, day 28): 1.51
Sphingomyelin (d18:1, C16:0) (ratio treated vs control) (m28: male rats, day 28): 1.34
Sphingomyelin (d18:2, C18:0) (ratio treated vs control) (m28: male rats, day 28): 0.93
Xylitol (ratio treated vs control) (m28: male rats, day 28): 10.32
dihomo-gamma-Linolenic acid (C20:cis[8,11,14]3) (ratio treated vs control) (m28: male rats, day 28): 3.40
Choline plasmalogen No 02 (putative), treatment ratio versus control [1]: 1.04
Lysophosphatidylcholine (C17:0), treatment ratio versus control [1]: 0.63
TAG (C42:9) (DAG-Fragment) (putative), treatment ratio versus control [1]: 0.76
Choline plasmalogen No 02 (putative), treatment ratio versus control [2]: 1.13
Lysophosphatidylcholine (C17:0), treatment ratio versus control [2]: 0.89
TAG (C42:9) (DAG-Fragment) (putative), treatment ratio versus control [2]: 0.72
Choline plasmalogen No 02 (putative), treatment ratio versus control [3]: 1.13
Lysophosphatidylcholine (C17:0), treatment ratio versus control [3]: 0.89
TAG (C42:9) (DAG-Fragment) (putative), treatment ratio versus control [3]: 0.72
